From patent US20230331803A1, “CO-AGONISTS OF THE GLP-1 AND AMYLIN RECEPTORS” (priority 2020, published 2023)
Like-named read-outs stand apart in the source and are kept apart here. Starred links: 1 amine or outer side, 2 acyl side, 3 side chain; linkers in the order of their positions; H or OH if unused. Non-standard residues stand in square brackets, D forms with d. Groups on a side chain read outwards from the residue. *: point of attachment. Butyryl(4-SO2NHCO(CH2)16Tz) = O=C(CCCCCCCCCCCCCCCCc1nnn[nH]1)NS(=O)(=O)CCCC(=O)*; Hexadecanoyl(16-SO3H) = O=C(CCCCCCCCCCCCCCCS(=O)(=O)O)*; C20 diacid = O=C(O)CCCCCCCCCCCCCCCCCCC(=O)*; C18 diacid = O=C(O)CCCCCCCCCCCCCCCCC(=O)*; C16 diacid = O=C(O)CCCCCCCCCCCCCCC(=O)*; γGlu = O=C(O)[C@H](CCC(=O)[*:2])N[*:1]; εLys = N[C@@H](CCCCN[*:1])C(=O)[*:2]; AEEA = NCCOCCOCC(=O)O; Aib = CC(C)(N)C(=O)O

Tests used:
[1] = target: T1, human GLP-1 receptor (Homo sapiens, UniProt P43220); assay: Human GLP-1 receptor in vitro potency assay (CRE-luciferase reporter, BHK cells); format: cell-based
T1 construct: expressed in transfected cells; host or cells: BHK (Baby Hamster Kidney) cells, clone BHK 467-12A KZ-10, stably transfected, with CRE-luciferase reporter
T1 sequence (P43220 24-463): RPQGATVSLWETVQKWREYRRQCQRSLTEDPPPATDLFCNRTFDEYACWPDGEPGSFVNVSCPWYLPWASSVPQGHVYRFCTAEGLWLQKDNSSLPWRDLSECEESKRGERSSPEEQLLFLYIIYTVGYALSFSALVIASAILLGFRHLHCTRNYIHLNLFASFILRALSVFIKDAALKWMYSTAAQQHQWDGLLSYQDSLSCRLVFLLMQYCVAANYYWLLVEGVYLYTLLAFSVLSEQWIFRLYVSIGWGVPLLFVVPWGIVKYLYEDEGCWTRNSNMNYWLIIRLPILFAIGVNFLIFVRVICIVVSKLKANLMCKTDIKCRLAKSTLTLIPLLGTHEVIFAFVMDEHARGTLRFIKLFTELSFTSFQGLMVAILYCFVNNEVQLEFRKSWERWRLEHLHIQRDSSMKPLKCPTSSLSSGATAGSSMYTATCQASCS
Procedure: It is thus possible to measure GLP-1 receptor activity using a CRE-luciferase reporter gene introduced into Baby Hamster Kidney (BHK) cells co-expressing the GLP-1 receptor.
(§1) Cells were aliquoted and stored at -180° C. until use.
Plates were sealed and incubated at room temperature with gentle shaking for 30 minutes while protected from light. Luminescence was detected on a luminescence plate reader e.g. a Synergy 2 (BioTek).

[2] = target: T2, human amylin receptor (hAmyR3) (Homo sapiens, UniProt O60896+P30988); assay: Human amylin receptor in vitro potency assay (CRE-luciferase reporter, BHK cells); format: cell-based;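 note: BHK cells expressing human calcitonin receptor plus RAMP3 (amylin-3 receptor) with a CRE-luciferase reporter, agonist activity read as luminescence from cAMP-driven transcription, 7-point serial dilutions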
T2 construct: host or cells: BHK cells (Hollex-1 line: human calcitonin receptor (a) + CRE-Luc), further transfected with human RAMP3
T2 sequence (P30988 25-474): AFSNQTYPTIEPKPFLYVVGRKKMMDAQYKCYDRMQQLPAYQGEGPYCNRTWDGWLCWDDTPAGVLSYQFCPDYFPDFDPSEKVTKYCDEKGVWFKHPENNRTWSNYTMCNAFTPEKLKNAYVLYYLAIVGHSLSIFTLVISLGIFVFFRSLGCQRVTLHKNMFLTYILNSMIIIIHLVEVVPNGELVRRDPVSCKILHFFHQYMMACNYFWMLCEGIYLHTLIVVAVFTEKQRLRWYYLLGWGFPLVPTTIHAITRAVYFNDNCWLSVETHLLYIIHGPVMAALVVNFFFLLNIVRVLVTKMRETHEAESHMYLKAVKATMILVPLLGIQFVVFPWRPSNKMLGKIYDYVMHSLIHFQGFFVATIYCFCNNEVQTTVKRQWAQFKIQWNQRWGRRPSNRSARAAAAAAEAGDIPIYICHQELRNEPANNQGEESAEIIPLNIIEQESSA
T2 sequence (O60896 24-148): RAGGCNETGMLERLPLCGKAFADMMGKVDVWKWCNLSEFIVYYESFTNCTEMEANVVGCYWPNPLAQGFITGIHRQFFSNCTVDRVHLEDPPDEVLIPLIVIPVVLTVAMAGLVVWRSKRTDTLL
Source text: Activation of hAmyR3 leads to increased cellular concentrations of cAMP. Consequently, transcription is activated by promotors containing multiple copies of the cAMP response element (CRE). It is thus possible to measure hAmyR3 activity using a CRE-luciferase reporter gene introduced into Baby Hamster Kidney (BHK) cells co-expressing the hAmyR3.
The cell line was further transfected with human receptor modifying protein 3 (RAMP3) using standard methods. This turns the human calcitonin receptor into a human amylin-3(a) receptor.
as §1
The plate was incubated over night at 37° C. in 5% CO2. On the day of the assay, cells were washed three times in assay buffer. Serial dilutions (7-fold dilutions, 7 concentrations pr. compound and one well containing only assay buffer) of comparator compounds and GLP-1 receptor-amylin receptor co-agonists were performed in assay buffer often starting from approximately 10-100 nM in 96-well plates and 30 µL of each concentration added to the 384-well assay plate with cells. […] The assay plate was sealed, incubated at room temperature with gentle shaking for 5 minutes followed by 30 minutes incubation without shaking while protected from light. Luminescence was detected on a luminescence plate reader e.g. a Synergy 2 (BioTek).

[3] = Table 4a, BHK cells expressing human GLP-1R, CRE-Luc, 3 hours, read-out: Human GLP-1R potency [EC50 (pM)]
[4] = Table 4a, BHK hAmyR3/CRE-Luc cells, 3 hours, read-out: Human AmyR3 potency [EC50 (pM)]

Molecule | EC50 [1, 3] | EC50 [2, 4] | further results
CC[C@H](C)[C@H](NC(=O)[C@H](Cc1ccccc1)NC(=O)[C@H](CCC(=O)O)NC(=O)[C@H](CCCCNC(=O)COCCOCCNC(=O)COCCOCCNC(=O)CC[C@H](NC(=O)CCCCCCCCCCCCCCCCC(=O)O)C(=O)O)NC(=O)[C@H](C)NC(=O)[C@H](C)NC(=O)[C@H](CCC(N)=O)NC(=O)CNC(=O)[C@H](CCC(=O)O)NC(=O)[C@H](CC(C)C)NC(=O)[C@H](Cc1ccc(O)cc1)NC(=O)[C@H](CO)NC(=O)[C@H](CO)NC(=O)[C@@H](NC(=O)[C@H](CC(=O)O)NC(=O)[C@H](CO)NC(=O)[C@@H](NC(=O)[C@H](Cc1ccccc1)NC(=O)[C@@H](NC(=O)CNC(=O)[C@H](CCC(=O)O)NC(=O)C(C)(C)NC(=O)[C@@H](N)Cc1c[nH]cn1)[C@@H](C)O)[C@@H](C)O)C(C)C)C(=O)N[C@@H](C)C(=O)N[C@@H](Cc1c[nH]c2ccccc12)C(=O)N[C@@H](CC(C)C)C(=O)N[C@H](C(=O)N[C@@H](CCCNC(=N)N)C(=O)NCC(=O)N[C@@H](CCCNC(=N)N)C(=O)NCC(=O)N[C@@H](CCCCNC(=O)COCCOCCNC(=O)COCCOCCNC(=O)CC[C@H](NC(=O)CCCCCCCCCCCCCCCCC(=O)O)C(=O)O)C(=O)N[C@@H](CCC(N)=O)C(=O)N[C@@H](CCC(=O)O)C(=O)N1CCC[C@H]1C(=O)NCC(=O)N[C@@H](CCC(N)=O)C(=O)N[C@@H](CCC(=O)O)C(=O)N1CCC[C@H]1C(=O)N[C@@H](CCC(=O)O)C(=O)N[C@@H](C)C(=O)N[C@@H](CO)C(=O)N[C@@H](CCC(=O)O)C(=O)N[C@@H](CC(C)C)C(=O)N[C@@H](CO)C(=O)N[C@H](C(=O)N[C@@H](C)C(=O)N[C@@H](C)C(=O)N[C@@H](CC(C)C)C(=O)NCC(=O)N[C@@H](CCCNC(=N)N)C(=O)N[C@@H](CC(C)C)C(=O)N[C@@H](CO)C(=O)N[C@@H](C)C(=O)N[C@@H](CCC(=O)O)C(=O)N[C@@H](CC(C)C)C(=O)N[C@@H](Cc1c[nH]cn1)C(=O)N[C@@H](CCC(=O)O)C(=O)N[C@@H](CC(C)C)C(=O)N[C@@H](C)C(=O)N[C@H](C(=O)N[C@@H](CC(C)C)C(=O)N1CCC[C@H]1C(=O)N[C@@H](CCCNC(=N)N)C(=O)N[C@H](C(=O)N[C@@H](CCC(=O)O)C(=O)N[C@H](C(=O)NCC(=O)N[C@@H](CO)C(=O)NCC(=O)N[C@@H](CO)C(=O)N1CCC[C@H]1C(N)=O)[C@@H](C)O)[C@@H](C)O)[C@@H](C)O)[C@@H](C)O)C(C)C [Compound 0056] | – | – | EC50 [1]: 41.4 pM; EC50 [2]: 120 pM
HAEGTFTSDVSSYLEEK([AEEA-AEEA-γGlu-C18 diacid])AAREFIEWLVRGRGEASELSTAALGRLSAELHELATLPRTETGSGSP-NH2 [Compound 0472] | 2.8 pM | 24 pM | –
H[Aib]EGTFTSDVSSYLEEQAARK([εLys-AEEA-AEEA-γGlu-C18 diacid])FIAWLVRGK([εLys-AEEA-AEEA-γGlu-C18 diacid])GGGGGGGGGEASELSTAALGRLSAELHELATLPRTETGSGSP-NH2 [Compound 0110] | – | – | EC50 [1]: 2.7 pM; EC50 [2]: 40.7 pM
H-H[Aib]EGTFTSDVSSYLEEK([AEEA-AEEA-γGlu-C16 diacid])AAREFIAWLVRGRGGGGGEASELSTAALGRLSAELHK([AEEA-AEEA-γGlu-C16 diacid])LATLPRTETGSGSP-NH2 [Compound 0299] | 6 pM | 11.5 pM | –
H-H[Aib]EGTFTSDVSK([AEEA-AEEA-γGlu-C16 diacid])YLEEQAARK([AEEA-AEEA-γGlu-C16 diacid])FIEWLVRGAAEASELSTAALGRLSAELHELATLPRTETGSGSP-NH2 [Compound 0629] | 7.9 pM | 97.5 pM | –
H-H[Aib]EGTFTSDVSSYLEEQAAREFIAWLVRGRK([AEEA-AEEA-γGlu-Hexadecanoyl(16-SO3H)])GGGGEASELSTAALGRLSAELHELATLPRTETGSGSP-NH2 [Compound 0654] | 2.9 pM | 11.3 pM | –
H-H[Aib]EGTFTSDVSSYLEEQAAREFIAWLVK([AEEA-AEEA-γGlu-C18 diacid])GRGGGGGEASELSTAALGRLSAELHELATLPRTETGSGSP-NH2 [Compound 0144] | 7.1 pM | 16.8 pM | –
H-H[Aib]EGTFTSDVSSYLEEQAAREFIAWLVRGRK([AEEA-AEEA-AEEA-γGlu-C18 diacid])GGGGEASELSTAALGRLSAELHELATLPRTETGSGSP-NH2 [Compound 0661] | 2.8 pM | 14.4 pM | –
H-H[Aib]EGTFTSDVSSYLEEQAAREFIAWLVRGK([AEEA-AEEA-γGlu-C16 diacid])GGGGGEASELSTAALGRLSAELHELK([AEEA-AEEA-γGlu-C16 diacid])TLPRTETGSGSP-NH2 [Compound 0281] | 35.2 pM | 114 pM | –
HWEGTFTSD-K([(2S)-2-Amino-6-[[2-[2-[2-[[2-[2-[2-[[(4S)-4-Carboxy-4-[[4-[(19-Carboxynonadecanoylamino)Methyl]Cyclohexanecarbonyl]Amino]Butanoyl]Amino]Ethoxy]Ethoxy]Acetyl]Amino]Ethoxy]Ethoxy]Acetyl]Amino]Hex Anoyl])-SSYLEEQAAREFIEWLVRGRGEASELSTAALGRLSAELHELATLPRTETGSGSP-amide [Compound 0433] | 30.7 pM | 12.9 pM | –
H-H[Aib]EGTFTSDVSSYLEGQAAKEFIAWLVRGRK([εLys-AEEA-AEEA-γGlu-C18 diacid])GGEASELSTAALGRPSAELHELATLPRTETGSGSP-NH2 [Comparator compound 0185, reference compound] | – | – | EC50 ([1]; Table 4c, further comparator compounds): 13.1 pM; EC50 ([2]; Table 4c, further comparator compounds, read-out: Human AmyR3 potency [EC50 (pM)]): 5660 pM; Ability to agonise the amylin receptor, in words ([2]; Tables 4a-4c): impaired their ability to agonise (activate) the amylin receptor
HWEGTFTSDVSSYLEEK([AEEA-AEEA-γGlu-C18 diacid])AAREFIEWLVRGRGEASELSTAALGRLSAELHELATLPRTETGSGSP-NH2 [Compound 0271] | 4.6 pM | 15.2 pM | –

Now from value to molecule, other results behind:

EC50 [1, 3] | EC50 [2, 4] | Molecule | further results
8.8 pM | 14 pM | H-H[Aib]EGTFTSDVSSYLEGQAAK([AEEA-AEEA-γGlu-C18 diacid])EFIAWLVRGRGQEPGQAPEASELSTAALGRLSAELHELATLPRTETGSGSP-NH2 [Compound 0026] | –
2.2 pM | 55.8 pM | H-H[Aib]EGTFTSDVSSYLEGQAAREFIAWLVRGRGQEPGQAPK([AEEA-AEEA-γGlu-C18 diacid])EASELSTAALGRLSAELHELATLPRTETGSGSP-NH2 [Compound 0085] | –
25.7 pM | 14 pM | H-H[Aib]EGTFTSDVSSYLEEQAAREFIEWLVRGK(Butyryl(4-SO2NHCO(CH2)16Tz))GGGASELSTAALGRLSAELHELATLPRTETGSGSP-NH2 [Compound 0146] | –
9.9 pM | 10.4 pM | H-H[Aib]EGTFTSDVSSYLEEQAAREFIAWLVRGRK([εLys-εLys-γGlu-C20 diacid])GGGGEASELSTAALGRLSAELHELATLPRTETGSGSP-NH2 [Compound 0657] | –
7.1 pM | 29.9 pM | H-H[Aib]EGTFTSDVSSYLEEQAARK([AEEA-AEEA-γGlu-C16 diacid])FIAWLVRGRGGGGGEASELSTAALGRLSAELHK([AEEA-AEEA-γGlu-C16 diacid])LATLPRTETGSGSP-NH2 [Compound 0509] | –
1.1 pM | 30.8 pM | CC[C@H](C)[C@H](NC(=O)[C@H](Cc1ccccc1)NC(=O)[C@H](CCCCNC(=O)COCCOCCNC(=O)COCCOCCNC(=O)CC[C@H](NC(=O)CCCCCCCCCCCCCCC(=O)O)C(=O)O)NC(=O)[C@H](CCCNC(=N)N)NC(=O)[C@H](C)NC(=O)[C@H](C)NC(=O)[C@H](CCC(N)=O)NC(=O)[C@H](CCC(=O)O)NC(=O)[C@H](CCC(=O)O)NC(=O)[C@H](CC(C)C)NC(=O)[C@H](Cc1ccc(O)cc1)NC(=O)[C@H](CO)NC(=O)[C@H](CO)NC(=O)[C@@H](NC(=O)[C@H](CC(=O)O)NC(=O)[C@H](CO)NC(=O)[C@@H](NC(=O)[C@H](Cc1ccccc1)NC(=O)[C@@H](NC(=O)CNC(=O)[C@H](CCC(=O)O)NC(=O)C(C)(C)NC(=O)[C@@H](N)Cc1c[nH]cn1)[C@@H](C)O)[C@@H](C)O)C(C)C)C(=O)N[C@@H](CCC(=O)O)C(=O)N[C@@H](Cc1c[nH]c2ccccc12)C(=O)N[C@@H](CC(C)C)C(=O)N[C@H](C(=O)N[C@@H](CCCNC(=N)N)C(=O)NCC(=O)N[C@@H](CCCCNC(=O)COCCOCCNC(=O)COCCOCCNC(=O)CC[C@H](NC(=O)CCCCCCCCCCCCCCC(=O)O)C(=O)O)C(=O)NCC(=O)N[C@@H](CCC(=O)O)C(=O)NCC(=O)N[C@@H](CCC(N)=O)C(=O)N[C@@H](CCC(=O)O)C(=O)N1CCC[C@H]1C(=O)NCC(=O)NCC(=O)N[C@@H](C)C(=O)N[C@@H](CO)C(=O)N[C@@H](CCC(=O)O)C(=O)N[C@@H](CC(C)C)C(=O)N[C@@H](CO)C(=O)N[C@H](C(=O)N[C@@H](C)C(=O)N[C@@H](C)C(=O)N[C@@H](CC(C)C)C(=O)NCC(=O)N[C@@H](CCCNC(=N)N)C(=O)N[C@@H](CC(C)C)C(=O)N[C@@H](CO)C(=O)N[C@@H](C)C(=O)N[C@@H](CCC(=O)O)C(=O)N[C@@H](CC(C)C)C(=O)N[C@@H](Cc1c[nH]cn1)C(=O)N[C@@H](CCC(=O)O)C(=O)N[C@@H](CC(C)C)C(=O)N[C@@H](C)C(=O)N[C@H](C(=O)N[C@@H](CC(C)C)C(=O)N1CCC[C@H]1C(=O)N[C@@H](CCCNC(=N)N)C(=O)N[C@H](C(=O)N[C@@H](CCC(=O)O)C(=O)N[C@H](C(=O)NCC(=O)N[C@@H](CO)C(=O)NCC(=O)N[C@@H](CO)C(=O)N1CCC[C@H]1C(N)=O)[C@@H](C)O)[C@@H](C)O)[C@@H](C)O)[C@@H](C)O)C(C)C [Compound 0105] | –
